Experimental data taken from patent publication US6407081B1, “Method for inhibiting cytokine production by cells” (Previsan AG, priority 1997, dated 2002).

Legend:
IL-5 [1] = assay: IL-5 production by purified T lymphocytes (Example 3); format: cell-based, human; conditions: mean of 2 donors
Procedure: PBMC from three healthy donors are purified by density gradient […] (LymphoPrep). The T lymphocytes are obtained from 15.10^6 PBMC incubated for 20 to 30 minutes in a waterbath at 37° C. with 0.8 ml of a mixture of LymphoKwik® (One Lambda, Inc., CA, USA). This latter substance is a mixture of complement and specific antibody for antigen units of the cell membrane which lyses the unwanted cells (B lymphocytes, monocytes, etc.). The cells are centrifuged and then washed twice.
These cultures are treated with various concentrations of ADA.
(§1) In Examples 3 and 4, the results are stated as a percentage taking the medium without ADA as 100%. The concentrations corresponding to 100% are respectively 90,000 pg/ml for IL-2, 1100 pg/ml for IL-5, 1900 pg/ml for IFN-γ and 2870 pg/ml for TNF-α. The results are the mean of independent ELISA assays.

IL-5 [2] = assay: IL-5 production by PHA-activated PBMC, ELISA (Example 1); format: cell-based, human; conditions: for production of IL-5 inhibited, on average: average of five donors, PBMC; for IL-5 content as a percentage of the control: PHA-activated PBMC, 72 h
Procedure: Peripheral mononuclear blood cells (PMBC) from five healthy human donors are isolated in the conventional manner from 50 ml of their blood and then purified by density gradient centrifugation (Lymphoprep). The cells (5.10^6 cells/ml) are activated by 0.3 μg/ml of phytohaemagglutinin (PHA) and cultured for 72 hours at 37° C. in the presence of various concentrations of ADA (20, 10, 5, 1, 0.2 and 0.04 μg/ml). The culture medium consists of RPMI 1640 complemented with 10% foetal calf serum and glutamine and contains mercaptoethanol. The ADA solutions are prepared in dimethyl sulfoxide (DMSO), the working concentration of DMSO during the experiments being 0.1%. Said experiments are performed on 96 well plates (200 μl/well) and, once the plates have been centrifuged at 1500 revolutions per minute for 10 minutes, the supernatants are harvested and the IL-5 content thereof analysed by an ELISA immunoenzymatic assay.

IL-4 = assay: In vivo serum IL-4 release after anti-CD3 145-2C11 mAb (Example 5); parameters: species or system BALB/C mice; conditions: ADA 100 mg/kg single injection one day before 145-2C11 mAb; sera at 2, 4, 8, 24 h; FIG. 2
Procedure: A single intraparenteral injection of azodicarbon-amide (ADA) at a dose of 100 mg/kg bodyweight or corresponding carrier is made into BALB/C mice (Harlan, Zeist, Netherlands) one day before intraparenteral inoculation of 25 μg of hamster 145-2C11 mAb, an anti-mouse CD3 mAb which brings about massive in vivo activation of polyclonal T cells, resulting in systemic cytokine release. Sera are collected 2, 4, 8 and 24 hours after the anti-CD3 treatment and the cytokine (IL-2, IL-4) levels are determined by an ELISA test (Genzyme).
FIGS. 1 and 2 are graphs showing, on the y-axis, the quantities of IL-2 and IL-4 in the serum as a mean of 5 test animals. […] The empty bars show the results obtained with the carrier and the shaded bars show those obtained with prior ADA treatment.

IL-2 = IL-2 production by purified CD4 T lymphocytes stimulated by PMA + anti-CD28 (Example 4); format: cell-based, human; conditions: for IL-2 in % relative to control: purified CD4 T lymphocytes, PMA + anti-CD28, mean of 2 donors
Procedure: (§2) Purified CD4 T lymphocytes (90% purity) stimulated by PMA (phorbol myristate acetate)+anti-CD28 antibodies from healthy donors are treated with various concentrations of ADA.
as §1

IFN-γ = IFN-γ production by splenocytes of ovalbumin-sensitised rats treated orally (Example 8); format: in vivo, Brown-Norway rats; conditions: ADA orally 500 and 1000 mg/kg twice daily, FIG. 4
Procedure: Brown-Norway rats are actively sensitised with 5% ovalbumin in 0.9% NaCl. 24 hours later, bronchial reactivity to metacholine is measured on the anaesthetised rats. Immediately measurement of bronchial reactivity is complete, splenocytes are taken from these rats and cultured to determine IFN-γ production by these cells.
ADA is administered 24 hours before the beginning of the ovalbumin sensitisation phase and daily throughout the duration of the test, except for the days of the measurements. The ADA is administered orally in suspension in 1% methylcellulose at a twice daily dosage of 500 mg/kg and 1000 mg/kg bodyweight.
The quantities of IFN-γ are plotted on the y-axis in pg/mg of protein. On the x-axis, the empty bars A to F correspond to the following experiments: […]

TNF-α = TNF-α production by purified CD4 T lymphocytes stimulated by PMA + anti-CD28 (Example 4); format: cell-based, human; conditions: for TNF-α in % relative to control: purified CD4 T lymphocytes, PMA + anti-CD28, 5 donors
Procedure: as §2, §1

NC(=O)N=NC(N)=O [ADA, azodicarbon-amide]
IL-5 in % relative to control (IL-5 [1]; ADA 1 μg/ml): 67 % relative to control
IL-5 in % relative to control (IL-5 [1]; ADA 5 μg/ml): 60 % relative to control
IL-5 in % relative to control (IL-5 [1]; ADA 10 μg/ml): 40 % relative to control
IL-5 in % relative to control (IL-5 [1]; ADA 20 μg/ml): 16 % relative to control
production of IL-5 inhibited, on average (IL-5 [2]; 0.2 μg/ml of ADA): 45%
production of IL-5 inhibited, on average (IL-5 [2]; 10 μg/ml of ADA): 80%
production of IL-5 inhibited, on average (IL-5 [2]; 20 μg/ml of ADA): 90%
IL-5 content as a percentage of the control (IL-5 [2]; ADA 0.04 μg/ml, Donor 1): 83 % of control
IL-5 content as a percentage of the control (IL-5 [2]; ADA 0.04 μg/ml, Donor 2): 50 % of control
IL-5 content as a percentage of the control (IL-5 [2]; ADA 0.04 μg/ml, Donor 3): 58 % of control
IL-5 content as a percentage of the control (IL-5 [2]; ADA 0.04 μg/ml, Donor 4): 46 % of control
IL-5 content as a percentage of the control (IL-5 [2]; ADA 0.04 μg/ml, Donor 5): 55 % of control
IL-5 content as a percentage of the control (IL-5 [2]; ADA 0.04 μg/ml, Mean of donors): 58 % of control
IL-5 content as a percentage of the control (IL-5 [2]; ADA 0.2 μg/ml, Donor 1): 54 % of control
IL-5 content as a percentage of the control (IL-5 [2]; ADA 0.2 μg/ml, Donor 2): 42 % of control
IL-5 content as a percentage of the control (IL-5 [2]; ADA 0.2 μg/ml, Donor 3): 63 % of control
IL-5 content as a percentage of the control (IL-5 [2]; ADA 0.2 μg/ml, Donor 4): 57 % of control
IL-5 content as a percentage of the control (IL-5 [2]; ADA 0.2 μg/ml, Donor 5): 58 % of control
IL-5 content as a percentage of the control (IL-5 [2]; ADA 0.2 μg/ml, Mean of donors): 55 % of control
IL-5 content as a percentage of the control (IL-5 [2]; ADA 1 μg/ml, Donor 1): 48 % of control
IL-5 content as a percentage of the control (IL-5 [2]; ADA 1 μg/ml, Donor 2): 29 % of control
IL-5 content as a percentage of the control (IL-5 [2]; ADA 1 μg/ml, Donor 3): 57 % of control
IL-5 content as a percentage of the control (IL-5 [2]; ADA 1 μg/ml, Donor 4): 37 % of control
IL-5 content as a percentage of the control (IL-5 [2]; ADA 1 μg/ml, Donor 5): 49 % of control
IL-5 content as a percentage of the control (IL-5 [2]; ADA 1 μg/ml, Mean of donors): 44 % of control
IL-5 content as a percentage of the control (IL-5 [2]; ADA 5 μg/ml, Donor 1): 44 % of control
IL-5 content as a percentage of the control (IL-5 [2]; ADA 5 μg/ml, Donor 2): 2 % of control
IL-5 content as a percentage of the control (IL-5 [2]; ADA 5 μg/ml, Donor 3): 23 % of control
IL-5 content as a percentage of the control (IL-5 [2]; ADA 5 μg/ml, Donor 4): 31 % of control
IL-5 content as a percentage of the control (IL-5 [2]; ADA 5 μg/ml, Donor 5): 34 % of control
IL-5 content as a percentage of the control (IL-5 [2]; ADA 5 μg/ml, Mean of donors): 27 % of control
IL-5 content as a percentage of the control (IL-5 [2]; ADA 10 μg/ml, Donor 1): 29 % of control
IL-5 content as a percentage of the control (IL-5 [2]; ADA 10 μg/ml, Donor 2): 2 % of control
IL-5 content as a percentage of the control (IL-5 [2]; ADA 10 μg/ml, Donor 3): 28 % of control
IL-5 content as a percentage of the control (IL-5 [2]; ADA 10 μg/ml, Donor 4): 14 % of control
IL-5 content as a percentage of the control (IL-5 [2]; ADA 10 μg/ml, Donor 5): 31 % of control
IL-5 content as a percentage of the control (IL-5 [2]; ADA 10 μg/ml, Mean of donors): 21 % of control
IL-5 content as a percentage of the control (IL-5 [2]; ADA 20 μg/ml, Donor 1): 9 % of control
IL-5 content as a percentage of the control (IL-5 [2]; ADA 20 μg/ml, Donor 2): 2 % of control
IL-5 content as a percentage of the control (IL-5 [2]; ADA 20 μg/ml, Donor 3): 26 % of control
IL-5 content as a percentage of the control (IL-5 [2]; ADA 20 μg/ml, Donor 4): 5 % of control
IL-5 content as a percentage of the control (IL-5 [2]; ADA 20 μg/ml, Donor 5): 7 % of control
IL-5 content as a percentage of the control (IL-5 [2]; ADA 20 μg/ml, Mean of donors): 10 % of control
IL-5 production, comparable tests in the absence of mercaptoethanol (IL-5 [2]; culture medium without mercaptoethanol, compared with Table 1): relatively similar results
release of IL-4 into serum (IL-4): significant reduction
IL-2 in % relative to control (IL-2; ADA 1 μg/ml): 82 % relative to control
IL-2 in % relative to control (IL-2; ADA 5 μg/ml): 30 % relative to control
IL-2 in % relative to control (IL-2; ADA 10 μg/ml): 18 % relative to control
IL-2 in % relative to control (IL-2; ADA 20 μg/ml): 10 % relative to control
secretion of IL-2 by lymphocytes (IL-2; concentrations lower than 20 μg/ml of ADA, Examples 3 and 4): Even lower concentrations inhibit
production of INF-γ by splenocytes (IFN-γ): inhibitory effect
production of TNF-α (TNF-α; 20 μg/ml of ADA, donors of Example 4): inhibited
TNF-α in % relative to control (TNF-α; ADA 1 μg/ml): 90 % relative to control
TNF-α in % relative to control (TNF-α; ADA 5 μg/ml): 48 % relative to control
TNF-α in % relative to control (TNF-α; ADA 10 μg/ml): 32 % relative to control
TNF-α in % relative to control (TNF-α; ADA 20 μg/ml): 14 % relative to control
